In ChEMBL document CHEMBL1127905, “Design and synthesis of a prototype model antagonist of tachykinin NK-2 receptor” (Bioorg Med Chem Lett, 1994):

Target: T1, Substance-K receptor (Homo sapiens) (UniProt P21452)
T1 sequence (whole entry): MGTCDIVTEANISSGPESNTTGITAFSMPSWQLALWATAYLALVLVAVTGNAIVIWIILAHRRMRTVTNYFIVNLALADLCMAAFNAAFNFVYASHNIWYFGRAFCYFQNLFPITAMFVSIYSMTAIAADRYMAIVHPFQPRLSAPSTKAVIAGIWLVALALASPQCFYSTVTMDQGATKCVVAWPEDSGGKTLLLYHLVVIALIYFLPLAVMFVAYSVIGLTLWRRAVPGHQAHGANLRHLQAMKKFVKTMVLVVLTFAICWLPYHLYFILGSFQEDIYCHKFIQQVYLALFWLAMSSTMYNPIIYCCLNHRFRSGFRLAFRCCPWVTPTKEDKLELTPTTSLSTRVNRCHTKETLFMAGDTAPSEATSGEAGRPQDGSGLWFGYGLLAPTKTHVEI
Test: Compound was evaluated for binding affinity to human recombinant Tachykinin receptor 2

- Activity: 3 µM
Compound: O=C(Cc1c[nH]c2ccccc12)N[C@@H]1C(=O)N2[C@H](CC[C@H]2C(=O)NCc2ccccc2)C[C@H]1Cc1ccccc1
